pEC50, pIC50: −log10 of the molar value. Like-named read-outs stand apart in the source and are kept apart here.
Tests used:
intracellular HBV DNA = experiment: Real-time PCR for intracellular HBV DNA in HepAD38 cells; format: cell-based; conditions: 65 hours treatment
HepAD38 cells = experiment: Cell viability assay (EZ-Cytox), cytotoxicity; format: cell-based; conditions: 65 hours
Method: (§1) HepAD38 cells were cultured for 2 days in Dulbecco's Modified Eagle's medium (Welgene, LM001-05) supplemented with 10% FBS without tetracycline. […] After 65 hours of treatment, viability was measured using EZ-Cytox cell viability assay kit (Daeil Lab Service) according to the manufacturer's instructions. The absorbance was measured at 450 nm using a spectrophotometer (Spark, Tecan).

[1] = Cell viability assay (EZ-Cytox), cytotoxicity; format: cell-based; conditions: human, HepAD38 cells; for viability at 65 h, 100 µM: read-out: Cytotoxicity % Livability (@100 μM)
Method: as §1

Protein = Protein (Hepatitis B virus genotype D subtype ayw, UniProt P03146); experiment: Protein inhibition rate / EC50 (Table 1, no method described); format: biochemical
Sequence of Protein (P03146 whole entry): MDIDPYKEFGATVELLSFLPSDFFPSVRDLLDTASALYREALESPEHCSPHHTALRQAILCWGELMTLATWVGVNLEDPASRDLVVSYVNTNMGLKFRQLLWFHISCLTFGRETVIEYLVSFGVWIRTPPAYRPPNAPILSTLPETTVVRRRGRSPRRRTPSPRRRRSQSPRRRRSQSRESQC

[2] = Hepatitis B virus, HePAD38, 65 h

Compound	pIC50 (intracellular HBV DNA)	CC50 (HepAD38 cells) [µM]	Cytotoxicity % Livability (@100 μM) (HepAD38 cells) [%]	pIC50 (intracellular HBV DNA; read-out: IC50)	pIC50 (intracellular HBV DNA; [2])	CC50 at 65 h [1] [µM]	inhibition at 30 µM (Protein) [%]	viability at 65 h, 100 µM [1] [%]	pEC50 (Protein)	Protein % inhibition rate (@30 μM) (Protein; @30 μM) [%]
COc1ncc(N(Cc2n[nH]c(C(F)F)c2Br)C(=O)Nc2ccc(F)c(Cl)c2)cn1 [Example 81, 1-((4-bromo-5-(difluoromethyl)-1H-pyrazol-3-yl)methyl)-3-(3-chloro-4-fluorophenyl)-1-(2-methoxypyrimidin-5-yl)urea]	7.84	> 100	76.0	–	–	–	–	–	–	–
3-(3-chloro-4-fluorophenyl)-1-((1-(hydroxymethyl)-5-(trifluoromethyl)-1H-pyrazol-3-yl)methyl)-1-(6-methoxypyridin-3-yl)urea [Example 79]	–	–	18.5	7.72	–	–	–	–	–	–
COc1ncc(N(Cc2n[nH]c(C(F)F)c2Br)C(=O)Nc2ccc(F)c(Cl)c2)cn1 [Example 98, 1-((4-bromo-5-(difluoromethyl)-1H-pyrazol-3-yl)methyl)-3-(3-chloro-4-fluorophenyl)-1-(2-methoxypyrimidin-5-yl)urea]	–	–	30.1	–	7.74	> 66	–	–	–	–
COc1ccc(N(Cc2cc[nH]n2)C(=O)Nc2ccc(F)c(Cl)c2)cc1 [Example 34, 1-((1H-pyrazol-3-yl)methyl)-3-(3-chloro-4-fluorophenyl)-1-(4-methoxyphenyl)urea]	–	–	–	–	< 5.96	–	55.2	92.9	–	–
COc1cc(N(Cc2n[nH]c3c2CCCC3)C(=O)Nc2ccc(F)c(Cl)c2)ccn1 [Example 54, 3-(3-chloro-4-fluorophenyl)-1-(2-methoxypyridin-4-yl)-1-((4,5,6,7-tetrahydro-1H-indazol-3-yl)methyl)urea]	–	–	–	–	7.89	40.6	84	17.4	5.46	–
O=C(Nc1ccc(F)c(Cl)c1)N(Cc1n[nH]c2c1CCC2)c1ccon1 [Example 134, 3-(3-chloro-4-fluorophenyl)-1-(isoxazol-3-yl)-1-((1,4,5,6-tetrahydrocyclopenta[c]pyrazol-3-yl)methyl)urea]	–	–	–	–	7.16	70.3	84.5	6.5	5.46	–
COc1ccc(N(Cc2n[nH]cc2C)C(=O)Nc2ccc(F)c(Cl)c2)cn1 [Example 56, 3-(3-chloro-4-fluorophenyl)-1-(6-methoxypyridin-3-yl)-1-((4-methyl-1H-pyrazol-3-yl)methyl)urea]	–	–	–	–	6.40	> 100	86.4	98.2	5.18	–
COc1cc(OC)cc(N(Cc2n[nH]c3c2CCCC3)C(=O)Nc2ccc(F)c(Cl)c2)c1 [Example 117, 3-(3-chloro-4-fluorophenyl)-1-(3,5-dimethoxyphenyl)-1-((4,5,6,7-tetrahydro-1H-indazol-3-yl)methyl)urea]	–	–	–	–	< 5.96	> 33	7	3.2	–	–
CCc1cc(CN(C(=O)Nc2ccc(F)c(Cl)c2)c2ccc(OC)nc2)n[nH]1 [Example 60, 3-(3-chloro-4-fluorophenyl)-1-((5-ethyl-1H-pyrazol-3-yl)methyl)-1-(6-methoxypyridin-3-yl)urea]	–	–	–	–	6.96	> 100	94.7	76	5.52	–
COC(=O)c1ccc(N(Cc2n[nH]c3c2CCCC3)C(=O)Nc2ccc(F)c(Cl)c2)cc1 [Example 31, methyl 4-(3-(3-chloro-4-fluorophenyl)-1-((4,5,6,7-tetrahydro-1H-indazol-3-yl)methyl)ureido)benzoate]	–	–	–	–	6.39	> 100	90.4	91.2	5.48	–
COc1ccc(N(Cc2n[nH]c3c2CCCC3)C(=O)Nc2ccc(F)c(Cl)c2)cc1OC [Example 116, 3-(3-chloro-4-fluorophenyl)-1-(3,4-dimethoxyphenyl)-1-((4,5,6,7-tetrahydro-1H-indazol-3-yl)methyl)urea]	–	–	–	–	< 5.96	> 100	69.5	104	–	–
1-((4-bromo-1H-pyrazol-3-yl)methyl)-3-(3-chloro-4-fluorophenyl)-1-(4-methoxyphenyl)urea [Example 61]	–	98.8	40.8	6.30	–	–	–	–	5.36	81.8
O=C(Nc1ccc(F)c(Cl)c1)N(Cc1n[nH]c2c1CCCC2)c1nncs1 [Example 133, 3-(3-chloro-4-fluorophenyl)-1-((4,5,6,7-tetrahydro-1H-indazol-3-yl)methyl)-1-(1,3,4-thiadiazol-2-yl)urea]	–	–	–	–	6.96	74.2	5	4.3	–	–
